# According to patent publication US20240279221A1, “HETEROCYCLIC COMPOUNDS AND METHODS OF USE” (Schrödinger, Inc., priority 2021, published 2024):
# Tests used:
# [1] = target: SOS1:KRAS (G12C) interaction (Homo sapiens (Human), UniProt Q07889); assay: SOS1-KRas(G12C) FRET Assay; format: binding; details: 0.5 nM His10-SOS1 (res. 564-1049), 2.5 nM GST-KRAS (res. 1-169, G12C); read-out: SOS-KRas(G12C) FRET IC50
# Procedure, shortened: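 Compounds were pre-incubated 15 min at 25° C with SOS1 (His10, res. 564-1049; 0.5 nM final) and anti-6His-XL665, then GST-KRAS G12C (res. 1-169; 2.5 nM final) with anti-GST-Eu(K) was added for 2 h at RT. The buffer was PBS, 0.1% BSA, 5 mM MgCl2, 100 mM KF, 5 mM DTT with 0.5% DMSO. The 665/615 nm signal was normalised to DMSO and no-SOS1 controls, and IC50 and Hill coefficient were fitted by non-linear regression.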
# human SOS1 = human SOS1 (Homo sapiens (Human), UniProt Q07889); assay: Surface Plasmon Resonance (SPR) SOS1 Binding Assay; details: biotinylated SOS1 (res. 564-1049), 25° C., kinetic or steady state fit, read-out: KD for hSOS1
# Experimental: Binding to SOS1 was measured using a SPR assay with purified recombinant human SOS1 substrate (res. 564-1049 with N-terminal Avi tag; purified and biotinylated based on Hillig, et al., Proc Natl Acad Sci USA (2019); 116(7):2551-2560). SPR measurements were performed on a Biacore 8K SPR instrument (GE Healthcare, Sweden). Assays were performed at 25° C. using Series S SA sensor chips pre-coated with streptavidin (GE Healthcare, Cat. BR100531). Biotinylated SOS1 diluted in sample buffer (20 mM Tris HCl, 150 mM NaCl, 1 mM DTT, 0.05% TWEEN 20, 1 mM MgCl2, pH 8.0) was captured to one flow cell of the chip to about 3,000 resonance units (RU) using sample buffer supplemented with 5% DMSO as a running buffer. Serial dilutions of the assayed compounds in the running buffer at 100, 50 or 0.5 μM were injected for 60 s at a flow rate of 30 μL/min and association phases were recorded. Dissociation of the samples was monitored for 600 s. Data processing was performed using Biacore Insight Software (Biacore, GE Healthcare). Sensorgrams recorded on a SA flow cell without captured protein were subtracted from sensorgrams recorded on the SOS1 surface. Blank injections of running buffer were used for double referencing and solvent correction was applied to all sample sensorgrams to correct for buffer mismatches. KDs were estimated using a kinetic or steady state, where applicable, fitting model describing a reversible equilibrium with 1:1 binding between SOS1 and the compound.
# Chain of SOS1:KRAS (G12C) interaction (Q07889 564-1049, stated change not applied): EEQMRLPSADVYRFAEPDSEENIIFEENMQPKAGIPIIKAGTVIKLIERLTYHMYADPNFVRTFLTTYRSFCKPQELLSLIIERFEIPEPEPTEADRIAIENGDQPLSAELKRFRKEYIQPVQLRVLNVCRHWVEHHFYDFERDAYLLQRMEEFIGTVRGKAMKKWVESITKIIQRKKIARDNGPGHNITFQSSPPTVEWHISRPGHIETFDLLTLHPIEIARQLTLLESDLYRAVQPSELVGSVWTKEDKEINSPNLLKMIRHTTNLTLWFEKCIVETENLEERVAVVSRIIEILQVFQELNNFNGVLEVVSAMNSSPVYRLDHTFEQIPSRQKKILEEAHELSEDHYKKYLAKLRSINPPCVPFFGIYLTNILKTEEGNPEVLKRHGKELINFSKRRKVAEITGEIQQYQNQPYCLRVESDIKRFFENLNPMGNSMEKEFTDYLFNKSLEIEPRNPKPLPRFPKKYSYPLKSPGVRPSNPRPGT
# Chain of human SOS1 (Q07889 564-1049): as the sequence (Q07889 564-1049, stated change not applied) above
Compound,IC50 [1] [nM],Kd (human SOS1) [nM]
"C[C@@H](Nc1nn(C)c(=O)c2cc(=O)n([C@@]3(C)CCOC3)cc12)c1cccc(C(F)F)c1F (single isomer, unassigned) [Example 52]",272,76
"Cc1c([C@@H](C)Nc2nn(C)c(=O)c3cc(=O)n([C@@]4(C)CCOC4)cc23)cccc1C(F)(F)F (single isomer, unassigned) [Example 54]",285,125
"COc1c(=O)n([C@H]2CCOC[C@H]2F)cc2c(N[C@H](C)c3cccc(C(F)F)c3F)nn(C)c(=O)c12 (single isomer, unassigned) [Example 59]",1040,441
"COc1c(=O)n([C@H]2CCOC[C@@H]2F)cc2c(N[C@H](C)c3cccc(C(F)F)c3F)nn(C)c(=O)c12 (single isomer, unassigned) [Example 60]",129,43
"C[C@@H](Nc1nn(C)c(=O)c2cc(=O)n([C@@H]3CCOC(C)(C)C3)cc12)c1cccc(C(F)F)c1F (single isomer, unassigned) [Example 84]",229,28
"Cc1c([C@@H](C)Nc2nn(C)c(=O)c3cc(=O)n(C4CC4)cc23)cccc1C(F)(F)F [Example 2, (R)-6-cyclopropyl-2-methyl-4-((1-(2-methyl-3-(trifluoromethyl)phenyl)ethyl)amino)-2,6-dihydropyrido[3,4-d]pyridazine-1,7-dione]",328,57
"Cc1c([C@@H](C)Nc2nn(C)c(=O)c3c(Br)c(=O)n(C4CC4)cc23)cccc1C(F)(F)F [Example 3, (R)-8-bromo-6-cyclopropyl-2-methyl-4-((1-(2-methyl-3-(trifluoromethyl)phenyl)ethyl)amino)-2,6-dihydropyrido[3,4-d]pyridazine-1,7-dione]",345,63

# The next molecules have a lower IC50 [1] than those just listed; values first:
IC50 [1] [nM],Kd (human SOS1) [nM],Compound
96.4,22,"C[C@@H](Nc1nn(C)c(=O)c2cc(=O)n(C3CCOCC3)cc12)c1cccc(C(F)(F)F)c1 [Example 5, (R)-2-methyl-6-(tetrahydro-2H-pyran-4-yl)-4-((1-(3-(trifluoromethyl)phenyl)ethyl)amino)-2,6-dihydropyrido[3,4-d]pyridazine-1,7-dione]"
54.6,22,"Cc1c([C@@H](C)Nc2nn(C)c(=O)c3cc(=O)n(C4CCOCC4)cc23)cccc1C(F)(F)F [Example 4, (R)-2-methyl-4-((1-(2-methyl-3-(trifluoromethyl)phenyl)ethyl)amino)-6-(tetrahydro-2H-pyran-4-yl)-2,6-dihydropyrido[3,4-d]pyridazine-1,7-dione]"
48.7,11,"C[C@@H](Nc1nn(C)c(=O)c2cc(=O)n([C@H]3CCOC(C)(C)C3)cc12)c1cccc(C(F)F)c1F (single isomer, unassigned) [Example 83]"
32.7,15,"COc1c(=O)n([C@@H]2CCOC[C@@H]2F)cc2c(N[C@H](C)c3cccc(C(F)F)c3F)nn(C)c(=O)c12 (single isomer, unassigned) [Example 58]"
32.2,14,"Cc1c([C@@H](C)Nc2nn(C)c(=O)c3cc(=O)n([C@]4(C)CCOC4)cc23)cccc1C(F)(F)F (single isomer, unassigned) [Example 55]"
30.3,7,"C[C@@H](Nc1nn(C)c(=O)c2cc(=O)n([C@]3(C)CCOC3)cc12)c1cccc(C(F)F)c1F (single isomer, unassigned) [Example 53]"
25.9,10,"COc1c(=O)n([C@@H]2CCOC[C@H]2F)cc2c(N[C@H](C)c3cccc(C(F)F)c3F)nn(C)c(=O)c12 (single isomer, unassigned) [Example 61]"
23.4,10,"C[C@@H](Nc1nn(C)c(=O)c2cc(=O)n(C3CCOCC3)cc12)c1cccc(C(F)(F)[C@@H]2CCCO2)c1F (single isomer, unassigned) [Example 45]"
